Assay results published in patent publication US9834514B2, “Antibiotic sensitivity-restoring and photosensitive agents” (New Mexico Tech Research Foundation, priority 2015, dated 2017).

Legend:
P. aeruginosa = assay: Cell killing with compounds and PME at fixed concentrations, with and without white light; assay type: cell-based; details: 20 μM compound and 0.1 μg/mL PME
In short: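 P. aeruginosa suspensions pre-incubated with PME 1.5 h at 37 °C, then compound 1 for 30 min, at fixed concentrations. Optional white-light irradiation 2 min, overnight 37 °C, second 2-min irradiation; ten-fold dilutions plated and colonies counted as CFU/mL.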

[1] = test system: A. baumannii (ATCC 15151); assay: Time course of colony counts with compounds and PME or PMB; assay type: cell-based; details: 0.2 μg/mL of PME, compound 5 μM; FIGS. 50, 52
[2] = test system: A. baumannii (ATCC 15151); assay: MIC against A. baumannii; assay type: cell-based; details: Acinetobacter baumannii, ATCC15151
drug-resistant bacteria = assay: Summary of synergistic activities with antibiotic families (TABLE 45); assay type: cell-based
Source text: TABLE 45 summarizes the synergistic activities of the seven classes of clinically used antibiotics and compounds of the invention against a variety of different drug-resistant bacteria.

[3] = test system: MRSA isolates (S. aureus ATCC 33591, BAA-44, BAA-1707, BAA-1717, BAA-1720, BAA-1747, BAA-1754, BAA-1761, BAA-1763, BAA-1764, BAA-1766); assay: Combination effects of compounds 7-11 and antibiotics on MRSA isolates (turbidity); assay type: cell-based
In short: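 Broth tube dilution with 5×10^5 CFU/mL inoculum, 16-20 h at 35±2° C in ambient air (24 h for oxacillin, vancomycin); MIC is lowest concentration preventing visible turbidity, trailing Gram-positive cocci read at first trailing. Synergy scored visually when co-treatment with compound plus antibiotic inhibited growth versus either alone.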

MRSA = assay: Resensitization to antibiotics (log reduction, TABLE 29); assay type: cell-based, S. aureus; details: compound 1 μM; Oxacillin (100 μg/mL)
Experimental: In a 96-well microtiter plate, two-fold dilutions were made of each drug (starting with 100 μM) in 100 μL of a cell suspension in TSB. The resulting samples were incubated overnight at 37° C. on a rotary shaking incubator at 100 rpm. The samples were then visually inspected for turbidity. A 20% well volume of MTT reagent (5 mg/mL) was subsequently added, and the samples were incubated for about 20 minutes.

In the case of Clc1ccc(Oc2c(-c3ccc(Cl)cc3)[nH]c3ccccc23)cc1 [Compound 10], the “Co-treatment with PME: log reduction in the CFU/mL compared to PME alone” value (P. aeruginosa) is reported as 2-log reduction, the “Co-treatment with PME: log reduction in the CFU/mL compared to PME alone” value (P. aeruginosa; listed as compound 10) is reported as about 2 log reduction and the “A. baumannii colony populations on treatment with compound and PME” value [1] is reported as “reduced to sterility”. For the same molecule, the MIC [2] was over 100 µM, the “Synergy with Polymyxin B (Polypeptides)” value (drug-resistant bacteria; A. baumannii ATCC 15151) was “Synergy” and the “Synergy with Polymyxin E (Polypeptides)” value (drug-resistant bacteria; A. baumannii ATCC 15151) was “Synergy”. The “Synergy with Polymyxin B (Polypeptides)” value (drug-resistant bacteria; CRE ATCC 1705) was “Synergy”, the “Synergy with Polymyxin E (Polypeptides)” value (drug-resistant bacteria; CRE ATCC 1705) was “Synergy” and the “Synergy with Polymyxin B (Polypeptides)” value (drug-resistant bacteria; CRE ATCC 2340) was “Synergy”. For the same molecule, the “Synergy with Polymyxin E (Polypeptides)” value (drug-resistant bacteria; CRE ATCC 2340) was “Synergy”, the “Synergy with Polymyxin B (Polypeptides)” value (drug-resistant bacteria; CRE ATCC 2341) was “Synergy” and the “Synergy with Polymyxin E (Polypeptides)” value (drug-resistant bacteria; CRE ATCC 2341) was “Synergy”. For the same molecule, the “Synergy with Polymyxin B (Polypeptides)” value (drug-resistant bacteria; CRE ATCC 2342) was “Synergy”, the “Synergy with Polymyxin E (Polypeptides)” value (drug-resistant bacteria; CRE ATCC 2342) was “Synergy” and the “Synergy with Norfioxacin (Fluoroquinolones)” value (drug-resistant bacteria; MRSA ATCC BAA-44) was “Synergy”. For the same molecule, the “Synergy with Oxacillin (β-lactama)” value (drug-resistant bacteria; MRSA ATCC BAA-44, *indicated ampicillin, dicloxicillin and Penicillin G) was “Synergy*”, the “Synergy with Polymyxin B (Polypeptides)” value (drug-resistant bacteria; P. aeruginosa ATCC 27853) was “Synergy” and the “Synergy with Polymyxin E (Polypeptides)” value (drug-resistant bacteria; P. aeruginosa ATCC 27853) was “Synergy”. For the same molecule, the “Synergy with Norfioxacin (Fluoroquinolones)” value (drug-resistant bacteria; VRE ATCC 51299) was “Synergy”, the “Synergy with Tetracycline (Tetracyclines)” value (drug-resistant bacteria; VRE ATCC 51299) was “Synergy” and the “Synergy with Vancomycin (Glycopeptides)” value (drug-resistant bacteria; VRE ATCC 51299) was “Synergy”. The “Synergy with β-lactama (Oxacillin column; cell says dicloxicillin)” value (drug-resistant bacteria; VRE ATCC 51299, dicloxicillin) was “Synergy”, the “combination effect with Gentamycin” value ([3]; MRSA ATCC 33591) was “No Synergy” and the “combination effect with Norfloxacin” value ([3]; MRSA ATCC 33591) was “No Synergy”. For the same molecule, the “combination effect with Oxacillin” value ([3]; MRSA ATCC 33591) was “No Synergy”, the “combination effect with Tetracycline” value ([3]; MRSA ATCC 33591) was “No Synergy” and the “combination effect with Vancomycin” value ([3]; MRSA ATCC 33591) was “Susceptible”. For the same molecule, the “combination effect with Norfloxacin” value ([3]; MRSA ATCC BAA-44) was “No Synergy”, the “combination effect with Oxacillin” value ([3]; MRSA ATCC BAA-44) was “No Synergy” and the “combination effect with Tetracycline” value ([3]; MRSA ATCC BAA-44) was “Susceptible”. For the same molecule, the “combination effect with Vancomycin” value ([3]; MRSA ATCC BAA-44) was “Susceptible”, the “combination effect with Gentamycin” value ([3]; MRSA ATCC BAA-1707) was “Susceptible” and the “combination effect with Norfloxacin” value ([3]; MRSA ATCC BAA-1707) was “Susceptible”. For the same molecule, the “combination effect with Oxacillin” value ([3]; MRSA ATCC BAA-1707) was “Susceptible”, the “combination effect with Tetracycline” value ([3]; MRSA ATCC BAA-1707) was “Synergy” and the “combination effect with Vancomycin” value ([3]; MRSA ATCC BAA-1707) was “Susceptible”. For the same molecule, the “combination effect with Gentamycin” value ([3]; MRSA ATCC BAA-1717) was “Susceptible”, the “combination effect with Norfloxacin” value ([3]; MRSA ATCC BAA-1717) was “Susceptible” and the “combination effect with Oxacillin” value ([3]; MRSA ATCC BAA-1717) was “Synergy”. For the same molecule, the “combination effect with Tetracycline” value ([3]; MRSA ATCC BAA-1717) was “Susceptible”, the “combination effect with Vancomycin” value ([3]; MRSA ATCC BAA-1717) was “Susceptible” and the “combination effect with Gentamycin” value ([3]; MRSA ATCC BAA-1720) was “Susceptible”. The “combination effect with Norfloxacin” value ([3]; MRSA ATCC BAA-1720) was “No Synergy”, the “combination effect with Oxacillin” value ([3]; MRSA ATCC BAA-1720) was “No Synergy” and the “combination effect with Tetracycline” value ([3]; MRSA ATCC BAA-1720) was “Susceptible”. The “combination effect with Vancomycin” value ([3]; MRSA ATCC BAA-1720) was “Susceptible”, the “combination effect with Gentamycin” value ([3]; MRSA ATCC BAA-1747) was “Susceptible” and the “combination effect with Norfloxacin” value ([3]; MRSA ATCC BAA-1747) was “Susceptible”. The “combination effect with Oxacillin” value ([3]; MRSA ATCC BAA-1747) was “Susceptible”, the “combination effect with Tetracycline” value ([3]; MRSA ATCC BAA-1747) was “Susceptible” and the “combination effect with Vancomycin” value ([3]; MRSA ATCC BAA-1747) was “Susceptible”. For the same molecule, the “combination effect with Gentamycin” value ([3]; MRSA ATCC BAA-1754) was “Susceptible”, the “combination effect with Norfloxacin” value ([3]; MRSA ATCC BAA-1754) was “Susceptible” and the “combination effect with Oxacillin” value ([3]; MRSA ATCC BAA-1754) was “No Synergy”. The “combination effect with Tetracycline” value ([3]; MRSA ATCC BAA-1754) was “Susceptible”, the “combination effect with Vancomycin” value ([3]; MRSA ATCC BAA-1754) was “Susceptible” and the “combination effect with Gentamycin” value ([3]; MRSA ATCC BAA-1761) was “Susceptible”. The “combination effect with Norfloxacin” value ([3]; MRSA ATCC BAA-1761) was “No Synergy”, the “combination effect with Oxacillin” value ([3]; MRSA ATCC BAA-1761) was “Susceptible” and the “combination effect with Tetracycline” value ([3]; MRSA ATCC BAA-1761) was “Susceptible”. For the same molecule, the “combination effect with Vancomycin” value ([3]; MRSA ATCC BAA-1761) was “Susceptible”, the “combination effect with Gentamycin” value ([3]; MRSA ATCC BAA-1763) was “Susceptible” and the “combination effect with Norfloxacin” value ([3]; MRSA ATCC BAA-1763) was “No Synergy”. The “combination effect with Oxacillin” value ([3]; MRSA ATCC BAA-1763) was “No Synergy”, the “combination effect with Tetracycline” value ([3]; MRSA ATCC BAA-1763) was “Susceptible” and the “combination effect with Vancomycin” value ([3]; MRSA ATCC BAA-1763) was “Susceptible”. The “combination effect with Gentamycin” value ([3]; MRSA ATCC BAA-1764) was “Susceptible”, the “combination effect with Norfloxacin” value ([3]; MRSA ATCC BAA-1764) was “Susceptible” and the “combination effect with Oxacillin” value ([3]; MRSA ATCC BAA-1764) was “No Synergy”. For the same molecule, the “combination effect with Tetracycline” value ([3]; MRSA ATCC BAA-1764) was “Susceptible”, the “combination effect with Vancomycin” value ([3]; MRSA ATCC BAA-1764) was “Susceptible” and the “combination effect with Gentamycin” value ([3]; MRSA ATCC BAA-1766) was “Susceptible”. For the same molecule, the “combination effect with Norfloxacin” value ([3]; MRSA ATCC BAA-1766) was “Susceptible”, the “combination effect with Oxacillin” value ([3]; MRSA ATCC BAA-1766) was “No Synergy” and the “combination effect with Tetracycline” value ([3]; MRSA ATCC BAA-1766) was “Susceptible”. The “combination effect with Vancomycin” value ([3]; MRSA ATCC BAA-1766) was “Susceptible” and the “Log Reduction” value (MRSA) was 4-5.
